# Laboratory results from USRE40594E1, “Inhibitors of the bitter taste response” (Mount Sinai School of Medicine of New York University, priority 1998, dated 2008).
# “Also recorded” adds a separate entry of the source.
# Legend:
# [1] = system: bovine taste receptor cell membranes (taste receptors) with transducin; test: G protein activation assay (trypsin sensitivity): activation of transducin by bitter tastant plus taste membranes; assay type: biochemical, Bovine (Bos primigenius)
# Excerpt: Taste receptor is contacted with gustducin or transducin and tastant, in the presence or absence of test inhibitor, under conditions suitable for activation of the G-protein present. […] In specific non-limiting embodiments, a subunits of transducin or gustducin may be combined with βγ subunits prior to this step, as set forth above. To the reaction mixture comprising taste receptors and gustducin or transducin, test inhibitor and/or bitter tastant may be added, and the resulting solution incubated to permit interaction of the elements.
# In preferred embodiments, activation is assessed by a trypsin digestion assay. […] In a specific, non-limiting example, to perform a trypsin digestion assay according to the invention, TPCK-treated trypsin (1:25 trypsin to total protein in the reaction mixture) may be added, and the digestion may be performed at room temperature for about 15 minutes and stopped by adding soybean trypsin inhibitor (6:1 mol/mol inhibitor to trypsin). […] The separated polypeptides may then be transferred by electro-blotter to a poly (vinylidene difluoride) membrane blocked by the addition of 5% BLOTTO [50 mM Tris-HCI, pH 7.4/100 mM NaCl/5% nonfat dry milk], (30 min). G-protein peptides may then be visualized by binding of antibody directed toward transducin or gustducin, followed, for example, by binding of a detectably labeled secondary antibody. If a horseradish peroxidase-labeled secondary antibody is used, binding may be visualized by developing with bicinchoninic acid staining reagents and exposure to x-ray film.
# G Protein Activation Assays. Bovine (Bos primigenius) tongues were collected fresh from a local slaughterhouse and transported on ice to the laboratory. Circumvallate papillae were hand dissected, frozen in liquid nitrogen, and stored at −80° C. until use. […] The pelleted membranes were rinsed twice, resuspended in homogenization buffer lacking protease inhibitors, and further homogenized by 20 passages through a 25-gauge needle. Aliquots were either flash frozen or stored on ice until use. […] The separated polypeptides were transferred by electro-blotter to a poly (vinylidene difluoride) membrane, which was blocked by the addition of 5% BLOTTO [50 mM Tris-HCI, pH 7.4/100 mM NaCl/5% nonfat dry milk], (30 min), then transducin peptides were visualized by binding of transducin antiserum and horseradish peroxidase-labeled goat anti-rabbit secondary antibody, followed by developing with bicinchoninic acid staining reagents from Bio-Rad and exposure to x-ray film.
# Chemicals. All bitter tastant and buffer chemicals were of the highest purity available and were purchased either from Sigma or Boehringer Mannheim, unless otherwise noted. […] The rabbit polyclonal antitransducin antibody was a kind gift of Mel Simon and John Watson (California Institute of Technology, Pasadena, Calif.).
# [2] = system: glossopharyngeal nerve responses of C57BL/6J mice; test: Glossopharyngeal nerve recording on lingual stimulation with tastants; assay type: in vivo; settings: inhibitor 0.1 mM
# Method: Nerve Recording. Glossopharyngeal nerve responses were recorded from male C57BL/6J mice as previously described (Ninomiya, Y., et al., 1997, Am. J. Physiol. (London) 272:R1002-RI006). Each mouse was anesthetized with intraperitoneal injection of sodium pentobarbital (40-50 mg/kg) and maintained at a surgical level of anesthesis with supplemental injections of the drug. The trachea was cannulated, and the mouse was then fixed in the supine position with a head holder to allow dissection of the glossopharyngeal nerve. The hypoglossal nerve was transected bilaterally to prevent inadvertent tongue movements. The right glossopharyngeal nerve was exposed by removal of the digastric muscle and posterior horn of the hyoid bone. The glossopharyngeal nerve was then dissected free from underlying tissues and cut near its entrance to the posterior foramen lacerum. The entire nerve was placed on a silver wire electrode for whole nerve recording. An indifferent electrode was positioned nearby in the wound. […] Whole nerve responses were integrated by using an RMS-DC converter (Hendrick, Tallahassee, Fla.) with a time constant of 0.5 s. For chemical stimulation of the circumvallate and foliate papillae, an incision was made on each side of the animal's face from the comer of the mouth to just above the angle of the jaw, the papillae were exposed, and their trenches opened via slight tension applied through a small suture sewn in the tip of the tongue. Tastant solutions were delivered to the tongue by gravity flow, and flowed over the tongue for a controlled period. The stability of each preparation was monitored by the periodic application of 0.1 M NH4Cl. A recording was considered to be stable when the 0.1 M NH4Cl response magnitudes at the beginning and end of each stimulation series deviated by no more than 15%. Only responses from stable recordings were used in the data analysis. In the analysis of whole nerve responses, the magnitudes of the integrated response at 20, 25, 30, 35. and 40 s after stimulus onset were measured and averaged to generate tonic responses: the tonic response represents the sustained nerve response to continuous tastant stimulation of taste receptor cells. The relative tonic response for each stimulus was obtained by normalization to the response from 0.1 M NH4Cl (the tonic response of NH4Cl was defined as 1.0). Student's t test was used for statistical analysis.
smiles,measurement,setting,value
"Nc1nc2c(ncn2[C@@H]2O[C@H](COP(=O)(O)O)[C@@H](O)[C@H]2O)c(=O)[nH]1 [GMP, reference compound]","inhibition of in vitro activation of transducin (G-protein) by taste membranes plus bitter compounds, summary statement","[1]; DEN, QUI and other bitter compounds, concentrations not given",did not
same,inhibition of taste membrane activation of transducin in response to other bitter tastants (than DEN),[1]; concentrations not given,did not inhibit
same,inhibition of activation of transducin by DEN plus bovine taste receptor membranes,"[1]; inhibitor 0.25, 0.5, 1.25, 2.5, 5.0 mM, DEN 5.0 mM, shift from 32-kDa to 23-kDa fragments, FIG. 1A/1E",does not inhibit; also recorded: did not inhibit
same,inhibition of glossopharyngeal nerve responses to atropine,"[2]; 1.0 mM ATR, FIGS. 4A-C",had no effect
same,inhibition of glossopharyngeal nerve responses to sparteine,"[2]; 1.0 mM SPA, FIGS. 4A-C, 4I (P<0.001)",had no effect
same,inhibition of glossopharyngeal nerve responses to strychnine,"[2]; 1.0 mM STR, FIGS. 4A-C",had no effect
same,inhibition of glossopharyngeal nerve responses to DEN,"[2]; 5.0 mM DEN, FIGS. 4A-C",had no effect
same,inhibition of glossopharyngeal nerve responses to QUI,"[2]; QUI 0.1 and 1.0 mM, FIGS. 4D-F",had no effect
